According to US5242946A, “Treating herpes Viral infections” (Bio-Mega, Inc., priority 1988, dated 1993):

How the values were obtained:
[1] = biological target: HSV-1 ribonucleotide reductase (Human alphaherpesvirus 1 strain 17, UniProt P08543+P10224); assay: Inhibition of HSV-1 ribonucleotide reductase (reduction of CDP); assay type: biochemical, herpes simplex virus (type 1), strain F; details: for selective inhibition of the viral ribonucleotide reductase over the cellular ribonucleotide reductase: HSV-1 versus hamster 96-V-2(600) ribonucleotide reductase
Sequence of HSV-1 ribonucleotide reductase (P10224 whole entry): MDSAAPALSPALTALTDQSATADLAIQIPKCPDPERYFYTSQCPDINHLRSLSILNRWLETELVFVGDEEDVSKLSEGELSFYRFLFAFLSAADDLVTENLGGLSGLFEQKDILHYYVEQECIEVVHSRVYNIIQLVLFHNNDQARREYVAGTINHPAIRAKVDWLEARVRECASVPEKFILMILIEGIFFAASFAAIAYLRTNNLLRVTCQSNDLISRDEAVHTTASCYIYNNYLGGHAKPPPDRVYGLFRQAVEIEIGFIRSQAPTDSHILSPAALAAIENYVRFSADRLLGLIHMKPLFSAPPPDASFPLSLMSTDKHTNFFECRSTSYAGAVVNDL
Sequence of HSV-1 ribonucleotide reductase (P08543 whole entry): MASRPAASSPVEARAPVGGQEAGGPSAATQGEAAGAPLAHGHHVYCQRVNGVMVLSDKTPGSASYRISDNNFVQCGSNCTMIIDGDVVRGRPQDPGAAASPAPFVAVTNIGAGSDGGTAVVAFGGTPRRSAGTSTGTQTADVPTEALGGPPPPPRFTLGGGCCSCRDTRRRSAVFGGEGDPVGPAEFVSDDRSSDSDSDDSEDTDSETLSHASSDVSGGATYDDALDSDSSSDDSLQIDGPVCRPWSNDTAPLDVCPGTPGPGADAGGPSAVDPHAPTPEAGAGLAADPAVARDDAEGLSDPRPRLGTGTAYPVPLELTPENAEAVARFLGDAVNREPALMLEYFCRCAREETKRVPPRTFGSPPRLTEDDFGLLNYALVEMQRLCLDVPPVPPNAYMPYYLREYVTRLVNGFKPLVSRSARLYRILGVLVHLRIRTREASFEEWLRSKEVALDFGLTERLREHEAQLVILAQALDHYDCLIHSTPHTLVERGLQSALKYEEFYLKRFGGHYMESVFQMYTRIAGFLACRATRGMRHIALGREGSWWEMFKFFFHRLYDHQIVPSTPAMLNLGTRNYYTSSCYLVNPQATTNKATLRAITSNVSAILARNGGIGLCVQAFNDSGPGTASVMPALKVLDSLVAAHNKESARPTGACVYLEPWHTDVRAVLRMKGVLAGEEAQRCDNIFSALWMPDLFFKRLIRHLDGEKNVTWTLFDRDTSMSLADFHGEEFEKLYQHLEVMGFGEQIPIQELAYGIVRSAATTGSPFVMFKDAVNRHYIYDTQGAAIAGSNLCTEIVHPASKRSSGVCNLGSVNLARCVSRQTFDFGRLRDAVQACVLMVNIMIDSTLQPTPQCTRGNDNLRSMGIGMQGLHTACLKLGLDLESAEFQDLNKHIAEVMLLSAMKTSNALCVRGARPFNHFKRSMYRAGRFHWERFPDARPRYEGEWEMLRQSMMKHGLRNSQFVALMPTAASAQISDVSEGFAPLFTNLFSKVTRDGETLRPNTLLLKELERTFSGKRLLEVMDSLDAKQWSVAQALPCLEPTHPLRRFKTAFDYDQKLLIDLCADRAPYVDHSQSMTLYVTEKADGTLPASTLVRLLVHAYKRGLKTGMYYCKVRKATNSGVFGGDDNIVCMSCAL

[2] = biological target: T1, Hamster 96-V-2(600) ribonucleotide reductase (Cricetulus griseus, UniProt G3I2K8+G3I3B7); assay: Inhibition of hamster 96-V-2(600) ribonucleotide reductase (reduction of CDP); assay type: biochemical, Chinese hamster; details: partially purified enzyme 40 μg, in the presence of adenosine triphosphate (4 mM) and magnesium chloride (11.5 mM)
T1 construct: overproducing strain; endogenous in cells; host or cells: 96-V-2(600), overproducing strain of a Chinese hamster lung cell line (partially purified)
T1 sequence (G3I3B7 entry or part of it): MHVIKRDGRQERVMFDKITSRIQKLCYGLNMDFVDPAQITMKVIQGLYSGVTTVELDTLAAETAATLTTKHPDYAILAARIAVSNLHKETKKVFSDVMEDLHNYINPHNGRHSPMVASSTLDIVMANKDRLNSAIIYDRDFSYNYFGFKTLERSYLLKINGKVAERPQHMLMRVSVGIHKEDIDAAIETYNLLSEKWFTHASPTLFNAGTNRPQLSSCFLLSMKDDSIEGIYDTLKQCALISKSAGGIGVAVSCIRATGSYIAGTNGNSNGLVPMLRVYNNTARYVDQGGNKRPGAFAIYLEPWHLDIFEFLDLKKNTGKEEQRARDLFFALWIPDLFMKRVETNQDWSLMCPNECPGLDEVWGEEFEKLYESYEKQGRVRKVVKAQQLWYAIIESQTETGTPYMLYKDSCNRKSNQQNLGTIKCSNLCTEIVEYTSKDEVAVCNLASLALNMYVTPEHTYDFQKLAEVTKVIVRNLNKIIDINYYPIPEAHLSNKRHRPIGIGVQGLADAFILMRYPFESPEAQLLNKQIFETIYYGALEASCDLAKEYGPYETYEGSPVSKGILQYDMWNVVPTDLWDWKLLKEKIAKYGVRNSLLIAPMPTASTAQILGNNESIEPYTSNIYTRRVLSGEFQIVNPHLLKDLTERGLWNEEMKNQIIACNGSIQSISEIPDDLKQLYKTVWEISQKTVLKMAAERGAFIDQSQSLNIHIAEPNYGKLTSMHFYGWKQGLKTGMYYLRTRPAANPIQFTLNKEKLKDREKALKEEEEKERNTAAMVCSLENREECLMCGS
T1 sequence (G3I2K8 entry or part of it): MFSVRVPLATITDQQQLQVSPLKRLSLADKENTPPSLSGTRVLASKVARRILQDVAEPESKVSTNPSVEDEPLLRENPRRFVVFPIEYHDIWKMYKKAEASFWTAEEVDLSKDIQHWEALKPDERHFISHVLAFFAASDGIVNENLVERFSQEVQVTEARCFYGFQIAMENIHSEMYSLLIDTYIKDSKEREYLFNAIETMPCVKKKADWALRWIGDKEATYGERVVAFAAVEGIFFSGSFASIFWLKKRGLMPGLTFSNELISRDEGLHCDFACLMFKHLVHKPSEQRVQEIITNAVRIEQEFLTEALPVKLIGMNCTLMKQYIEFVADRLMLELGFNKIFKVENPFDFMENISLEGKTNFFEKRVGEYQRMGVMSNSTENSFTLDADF
Description: Hamster 96-V-2(600) ribonucleotide reductase (partially purified) was obtained from an overproducting strain of a Chinese hamster lung cell line as described by W. H. Lewis and P. R. Scinivasan, Mol. Cell Biol., 3, 1053 (1983).
Samples of the HSV-1 ribonucleotide reductase (65 μg with a specific activity of 26 units per mg) were mixed with increasing concentrations of the test compound, i.e. the naphthalene noted in the title of this example, in a series of tubes. Ribonucleotide reductase activity was assayed by monitoring the reduction of cytidine diphosphate (CDP) as described by Cohen et al., supra. The standard reaction mixture, in a final volume of 60 μl, contained: 50 mM, N-2-hydroxyethylpiperazine-N'-2-ethanesulfonic acid (pH 7.8); 4 mM NaF, 30 mM DL-dithiothreitol (DTT); 1 mM bacitracin, 54 μM CDP and 0.25 μCi of [^3 H]CDP. After 30 minutes of incubation at 37° C., the reaction was stopped by immersing the tube in boiling water for 4 minutes. The precipitate was removed by centrifugation. Nucleotides in the supernatant were converted to nucleosides by enzymatic hydrolysis. The deoxyribonucleosides were subsequently separated from the ribonucleosides by ascending polyethyleneimine-celulose chromatography. […] The results, shown in FIG. 1, are expressed as a percentage of the activity obtained in the controls.

SMILES | selective inhibition of the viral ribonucleotide reductase over the cellular ribonucleotide reductase [1] | IC50 ([1]; partially purified enzyme 65 μg, 54 μM CDP, 30 minutes at 37° C., pH 7.8, read-out: IC50, fifty percent reduction of the HSV-1 ribonucleotide reductase activity) [µM] | IC50 [2] [µM]
COc1ccc2c(OC(C)=O)c(OC)c(OC)c(OC(C)=O)c2c1 [2,3,6-trimetoxy-1,4-naphthalenediol diacetate] | selective inhibition |  | 
COc1c(OC)c(OC(C)=O)c2ccccc2c1OC(C)=O [2,3-dimethoxy-1,4-1,4-naphthalenediol diacetate] | selective inhibition |  | 
COc1c(OC)c(OC(C)=O)c2cc(Cl)ccc2c1OC(C)=O [6-Chloro-2,3-dimethoxy-1,4-naphthalenediol diacetate] | selective inhibition | 31 | > 250
